Reference: ChEMBL document CHEMBL5143556, “Molecular hybridization used to design and synthesize neo-tanshinlactone derivatives as PD-1/PD-L1 inhibitors” (Bioorg Med Chem, 2022)
pEC50: −log10 of the molar value. Activity calls are given as the source filed them. The rule behind the calls is not given here.

Experiments:
[1] = Cytotoxicity against T cell (unknown origin); format: toxicity, cell-based, Homo sapiens; details: T cells
Jurkat [2] = assay: Induction of anti-CD3/CD28 antibodies-stimulated human Jurkat T cell activation co-cultured with MDA-MB-231 cells assessed as increase TNFalpha protein expression in CD8+ cells at 5 uM after 48 hrs by flow cytometric analysis; format: functional, cell-based
Jurkat [3] = assay: Cytotoxicity against human Jurkat T cells co-cultured with MDA-MB-231 cells assessed as reduction in cell viability at 50 uM after 48 hrs by CFSE staining based flow cytometric analysis; format: toxicity
Jurkat [4] = assay: Induction of anti-CD3/CD28 antibodies-stimulated human Jurkat T cell activation co-cultured with MDA-MB-231 cells assessed as increase granzyme B protein expression in CD8+ cells at 5 uM in presence of PMA and ionomycin after 48 hrs by flow cytometric analysis; format: functional, cell-based
Jurkat [5] = assay: Induction of anti-CD3/CD28 antibodies-stimulated human Jurkat T cell activation co-cultured with MDA-MB-231 cells assessed as increase granzyme B protein expression in CD8+ cells at 5 uM after 48 hrs by flow cytometric analysis; format: functional, cell-based
Jurkat [6] = assay: Induction of anti-CD3/CD28 antibodies-stimulated human Jurkat T cell activation co-cultured with MDA-MB-231 cells assessed as increase IFN-gamma protein expression in CD8+ cells in presence of PMA and ionomycin at 5 uM after 48 hrs by flow cytometric analysis; format: functional, cell-based
Jurkat [7] = assay: Induction of anti-CD3/CD28 antibodies-stimulated human Jurkat T cell activation co-cultured with MDA-MB-231 cells assessed as increase IFN-gamma protein expression in CD8+ cells at 5 uM after 48 hrs by flow cytometric analysis; format: functional, cell-based
Jurkat [8] = assay: Induction of anti-CD3/CD28 antibodies-stimulated human Jurkat T cell activation co-cultured with MDA-MB-231 cells assessed as increase TNFalpha protein expression in CD8+ cells at 5 uM in presence of PMA and ionomycin after 48 hrs by flow cytometric analysis; format: functional, cell-based
MC-38 [9] = assay: Antitumour activity against mouse MC38 cells implanted in C57BL6 mouse assessed reduction in tumor weight at 10 to 25 mg/kg, IG for 16 days; format: functional, organism-based; details: dose 10-25 mg/kg, time 16.0 day
MC-38 [10] = assay: Antitumour activity against mouse MC38 cells implanted in C57BL6 mouse assessed increase in CD4-CD8+Tim3+ cells at 10 to 25 mg/kg, IG for 16 days by flow cytometric analysis; format: functional, organism-based; details: dose 10-25 mg/kg, time 16.0 day
Jurkat [11] = assay: Induction of cell proliferation in human Jurkat T cells co-cultured with MDA-MB-231 cells assessed as increase in cell viability at < 5 uM after 48 hrs by CFSE staining based flow cytometric analysis; format: functional
MC-38 [12] = assay: Antitumour activity against mouse MC38 cells implanted in C57BL6 mouse assessed reduction in tumor size at 10 to 25 mg/kg, IG for 16 days; format: functional, organism-based; details: dose 10-25 mg/kg, time 16.0 day
MC-38 [13] = assay: Antitumour activity against mouse MC38 cells implanted in C57BL6 mouse assessed decrease in CD4+CD8-PD1+ cells at 10 to 25 mg/kg, IG for 16 days by flow cytometric analysis; format: functional, organism-based; details: dose 10-25 mg/kg, time 16.0 day
MC-38 [14] = assay: Antitumour activity against mouse MC38 cells implanted in C57BL6 mouse assessed increase in CD4+CD8-Tim3+ cells at 10 to 25 mg/kg, IG for 16 days by flow cytometric analysis; format: functional, organism-based; details: dose 10-25 mg/kg, time 16.0 day
MC-38 [15] = assay: Antitumour activity against mouse MC38 cells implanted in C57BL6 mouse assessed increase in CD4-CD8+PD-1+ cells at 10 to 25 mg/kg, IG for 16 days by flow cytometric analysis; format: functional, organism-based; details: dose 10-25 mg/kg, time 16.0 day
MC-38 [16] = assay: Antitumour activity against mouse MC38 cells implanted in C57BL6 mouse assessed reduction in tumor growth at 10 to 25 mg/kg, IG for 16 days by Ki67 staining based immunohistochemical analysis; format: functional, organism-based; details: dose 10-25 mg/kg, time 16.0 day
MC-38 [17] = assay: Antitumour activity against mouse MC38 cells implanted in C57BL6 mouse assessed reduction in tumor growth at 10 to 25 mg/kg, IG for 16 days by PCNA staining based immunohistochemical analysis; format: functional, organism-based; details: dose 10-25 mg/kg, time 16.0 day
MC-38 [18] = assay: Antitumour activity against mouse MC38 cells implanted in C57BL6 mouse assessed increase in CD4+CD8- cells at 25 mg/kg, IG for 16 days by flow cytometric analysis; format: functional, organism-based; details: time 16.0 day
Jurkat [19] = assay: Cytotoxicity against human Jurkat T cells co-cultured with MDA-MB-231 cells assessed as reduction in cell viability at 5 to 10 uM after 48 hrs by CFSE staining based flow cytometric analysis; format: toxicity; details: dose 5-10 µM
MC-38 [20] = assay: Antitumour activity against mouse MC38 cells implanted in C57BL6 mouse assessed reduction in tumor size at 25 mg/kg, IG for 16 days; format: functional, organism-based; details: time 16.0 day
MC-38 [21] = assay: Antitumour activity against mouse MC38 cells implanted in C57BL6 mouse assessed increase in CD4+CD8-Tim3+ cells at 25 mg/kg, IG for 16 days by flow cytometric analysis; format: functional, organism-based; details: time 16.0 day
MC-38 [22] = assay: Antitumour activity against mouse MC38 cells implanted in C57BL6 mouse assessed reduction in tumor weight at 25 mg/kg, IG for 16 days; format: functional, organism-based; details: time 16.0 day
MCF7 = assay: Antiproliferative activity against human MCF7 cells assessed as reduction in […]; format: functional, cell-based
SK-BR-3 = assay: Antiproliferative activity against human SK-BR-3 cells assessed as reduction in […]; format: functional, cell-based
ZR-75-1 = assay: Antiproliferative activity against human ZR-75-1 cells assessed as reduction in […]; format: functional, cell-based

Compound | pEC50 [1] | Activity (Jurkat [2]) | Activity (Jurkat [3]) | Activity (Jurkat [4]) | Activity (Jurkat [5]) | Activity (Jurkat [6]) | Activity (Jurkat [7]) | Activity (Jurkat [8]) | Activity (Jurkat [11]) | also measured
Cc1c(COc2cc(OCc3cccc(C#N)c3)c(CN3C[C@@H](O)C[C@H]3C(=O)O)cc2Cl)cccc1-c1ccc2c(c1)OCCO2 | 8.85 |  |  |  |  |  |  |  |  | 
O=C(O)[C@@H]1Cc2ccccc2CN1Cc1ccc(OCc2cccc(-c3ccccc3)c2Br)cc1Oc1cc(=O)oc2c1ccc1ccccc12 |  | Active | Toxic | Active | Active | Active | Active | Active |  | 
Cc1c(COc2ccc(CN3Cc4ccccc4C[C@@H]3C(=O)O)c(Oc3cc(=O)oc4c3ccc3ccccc34)c2)cccc1-c1ccccc1 |  | Active | Toxic | Active | Active | Active | Active | Active | Active | Activity (MC-38 [9]): Active; Activity (MC-38 [10]): Active; Activity (MC-38 [12]): Active; Activity (MC-38 [13]): Active; Activity (MC-38 [14]): Active; Activity (MC-38 [15]): Active; TGI (MC-38 [16]): Active; TGI (MC-38 [17]): Active
COc1nc(OCc2cccc(-c3ccccc3)c2C)ccc1CNCCNC(C)=O | 7.96 | Active |  | Active | Active | Active | Active | Active |  | Activity (MC-38 [18]): Active; Activity (Jurkat [19]): Non-Toxic; Activity (MC-38 [20]): Active; Activity (MC-38 [21]): Active; Activity (MC-38 [22]): Active
Cc1c(COc2ccc(CN3Cc4ccccc4CC3C(=O)O)c(Oc3cc(=O)oc4ccccc34)c2)cccc1-c1ccccc1 (racemic) |  |  |  |  |  |  |  |  | Active | 
CCc1cccc2c1ccc1c3occ(C)c3c(=O)oc21 |  |  |  |  |  |  |  |  |  | EC50 (MCF7): 0.45 µg/mL; EC50 (SK-BR-3): 0.1 µg/mL; EC50 (ZR-75-1): 0.18 µg/mL
